Assay results taken from PMC12852734, “Design of precision therapeutics for a CKD risk allele by targeting Shroom3-Rock interaction” (Nature Communications, 2025).

Tests used:
[1] = target: T1, ROCK1 (Homo sapiens, UniProt Q13464); assay: anti-V5 co-immunoprecipitation of SHROOM3-ROCK1 from treated WT-Sh3 HEK-293T cells; format: cell-based; set-up: with SHROOM3
Target sequence in this assay (Q13464 2-1354): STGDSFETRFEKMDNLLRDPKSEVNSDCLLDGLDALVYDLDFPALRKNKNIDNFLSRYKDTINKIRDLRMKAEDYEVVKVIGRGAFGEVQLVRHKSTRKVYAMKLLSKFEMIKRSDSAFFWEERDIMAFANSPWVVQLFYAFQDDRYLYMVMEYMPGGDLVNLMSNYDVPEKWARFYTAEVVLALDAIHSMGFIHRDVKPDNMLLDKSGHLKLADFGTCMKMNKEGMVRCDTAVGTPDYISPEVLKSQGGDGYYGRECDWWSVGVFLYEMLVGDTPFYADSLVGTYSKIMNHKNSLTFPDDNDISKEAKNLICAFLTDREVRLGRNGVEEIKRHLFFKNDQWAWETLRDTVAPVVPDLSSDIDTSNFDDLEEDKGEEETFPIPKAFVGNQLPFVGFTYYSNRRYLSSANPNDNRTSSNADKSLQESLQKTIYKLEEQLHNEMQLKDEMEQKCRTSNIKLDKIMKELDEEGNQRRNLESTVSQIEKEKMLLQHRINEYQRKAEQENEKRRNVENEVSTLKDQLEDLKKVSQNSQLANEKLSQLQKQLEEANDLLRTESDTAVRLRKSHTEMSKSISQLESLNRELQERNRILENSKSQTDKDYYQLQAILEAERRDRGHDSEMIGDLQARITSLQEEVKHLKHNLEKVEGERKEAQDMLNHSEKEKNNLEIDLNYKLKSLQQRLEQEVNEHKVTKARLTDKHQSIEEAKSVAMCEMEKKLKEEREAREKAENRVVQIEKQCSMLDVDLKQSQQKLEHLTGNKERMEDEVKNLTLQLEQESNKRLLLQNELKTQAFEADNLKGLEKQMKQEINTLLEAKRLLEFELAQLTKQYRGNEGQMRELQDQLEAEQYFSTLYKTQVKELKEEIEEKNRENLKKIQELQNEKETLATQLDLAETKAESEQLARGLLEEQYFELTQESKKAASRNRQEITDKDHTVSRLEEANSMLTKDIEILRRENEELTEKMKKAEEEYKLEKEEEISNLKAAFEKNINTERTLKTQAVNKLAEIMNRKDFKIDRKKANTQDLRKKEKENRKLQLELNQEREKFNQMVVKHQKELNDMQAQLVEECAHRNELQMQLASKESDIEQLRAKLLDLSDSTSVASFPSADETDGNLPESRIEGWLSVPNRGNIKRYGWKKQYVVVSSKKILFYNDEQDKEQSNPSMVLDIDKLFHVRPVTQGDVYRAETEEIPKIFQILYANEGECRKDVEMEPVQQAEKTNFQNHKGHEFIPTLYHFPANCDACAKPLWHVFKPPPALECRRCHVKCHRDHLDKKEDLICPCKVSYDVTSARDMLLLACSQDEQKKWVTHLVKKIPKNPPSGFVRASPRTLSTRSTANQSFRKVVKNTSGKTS
Target sequence in this assay (Q8TF72 whole entry partner): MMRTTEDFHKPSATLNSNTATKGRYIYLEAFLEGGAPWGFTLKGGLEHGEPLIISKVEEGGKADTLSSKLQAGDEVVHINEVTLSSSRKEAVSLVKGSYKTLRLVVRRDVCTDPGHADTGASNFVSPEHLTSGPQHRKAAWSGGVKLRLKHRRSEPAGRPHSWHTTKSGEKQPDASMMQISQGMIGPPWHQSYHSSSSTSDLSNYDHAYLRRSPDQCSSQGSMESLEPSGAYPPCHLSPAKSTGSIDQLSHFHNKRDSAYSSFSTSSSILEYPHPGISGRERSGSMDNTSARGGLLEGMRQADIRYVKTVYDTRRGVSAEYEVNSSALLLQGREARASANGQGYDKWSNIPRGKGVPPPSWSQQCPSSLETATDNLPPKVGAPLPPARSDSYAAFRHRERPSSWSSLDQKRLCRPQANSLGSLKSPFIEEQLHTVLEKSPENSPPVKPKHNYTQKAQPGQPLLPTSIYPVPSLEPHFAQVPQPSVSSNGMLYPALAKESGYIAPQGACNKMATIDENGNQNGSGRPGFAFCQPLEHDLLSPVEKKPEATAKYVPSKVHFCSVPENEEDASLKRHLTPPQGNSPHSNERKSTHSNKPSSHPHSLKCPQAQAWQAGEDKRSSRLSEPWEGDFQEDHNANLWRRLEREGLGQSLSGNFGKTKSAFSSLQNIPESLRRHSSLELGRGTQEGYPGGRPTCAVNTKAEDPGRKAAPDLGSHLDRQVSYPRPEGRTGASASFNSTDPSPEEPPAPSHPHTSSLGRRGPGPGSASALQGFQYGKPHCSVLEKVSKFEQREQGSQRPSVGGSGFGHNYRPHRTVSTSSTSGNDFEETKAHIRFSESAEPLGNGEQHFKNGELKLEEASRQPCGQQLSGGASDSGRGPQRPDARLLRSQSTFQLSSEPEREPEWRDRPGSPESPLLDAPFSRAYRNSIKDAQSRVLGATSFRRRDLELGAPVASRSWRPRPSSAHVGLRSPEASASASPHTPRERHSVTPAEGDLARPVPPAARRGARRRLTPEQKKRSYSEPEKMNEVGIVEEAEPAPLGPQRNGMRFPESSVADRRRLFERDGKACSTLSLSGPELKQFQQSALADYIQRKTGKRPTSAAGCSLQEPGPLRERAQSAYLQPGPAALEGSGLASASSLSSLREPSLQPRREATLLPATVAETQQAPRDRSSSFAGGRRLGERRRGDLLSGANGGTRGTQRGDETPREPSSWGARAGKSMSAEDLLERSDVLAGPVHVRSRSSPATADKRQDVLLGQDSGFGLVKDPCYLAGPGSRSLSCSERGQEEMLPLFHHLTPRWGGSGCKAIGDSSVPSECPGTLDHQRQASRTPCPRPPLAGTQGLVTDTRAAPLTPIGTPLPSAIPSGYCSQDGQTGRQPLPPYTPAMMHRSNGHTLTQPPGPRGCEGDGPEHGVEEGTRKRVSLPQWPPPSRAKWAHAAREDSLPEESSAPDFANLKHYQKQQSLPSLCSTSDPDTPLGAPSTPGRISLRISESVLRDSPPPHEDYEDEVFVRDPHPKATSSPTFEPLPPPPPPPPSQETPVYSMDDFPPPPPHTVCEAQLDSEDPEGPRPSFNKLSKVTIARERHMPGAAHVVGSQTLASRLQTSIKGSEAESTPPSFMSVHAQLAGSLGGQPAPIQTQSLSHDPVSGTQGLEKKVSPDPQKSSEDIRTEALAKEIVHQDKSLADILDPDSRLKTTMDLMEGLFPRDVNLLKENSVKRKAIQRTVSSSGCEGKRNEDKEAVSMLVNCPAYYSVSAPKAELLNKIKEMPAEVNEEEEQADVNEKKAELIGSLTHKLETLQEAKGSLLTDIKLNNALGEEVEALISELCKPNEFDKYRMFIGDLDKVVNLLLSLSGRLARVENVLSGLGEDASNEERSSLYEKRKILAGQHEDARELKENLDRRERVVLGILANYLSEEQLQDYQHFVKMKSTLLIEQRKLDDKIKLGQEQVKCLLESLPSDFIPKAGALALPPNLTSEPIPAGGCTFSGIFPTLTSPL

[2] = target: T1, ROCK1
Target sequence in this assay (Q13464 2-1354): as the sequence (Q13464 2-1354) above

Row | SMILES | anti-V5 co-immunoprecipitation of SHROOM3-ROCK1 from treated WT-Sh3 HEK-293T cel [1] | kinase hot spot assay in the absence of SHROOM3 (Fig. S7j) [2]
1 | F[B-](F)(F)c1ccc(C2NC(=S)NC3=C2CCc2ccccc23)cc1 (centres unmarked) [D4G, potassium trifluoro (4-(2-thioxo-1,2,3,4,5,6-hexahydrobenzo [h]quinazolin-4-yl)phenyl) borate] | the interaction of SHROOM3 with ROCK1 was diminished with D4G-treatment vs DMSO-treatment in WT-Sh3 overexpressing HEK-293T | 
2 | O=c1[nH]ccc2c(S(=O)(=O)N3CCCNCC3)cccc12 [HF, Hydroxy Fasudil] |  | HF inhibited Rock1, Rock2 (as expected), but showed significant off-target kinase inhibition (except Fyn)
